From patent US20110201568A1, “PHYOTOCHEMICAL COMPOSITION AND A PROCESS THEREOF” (priority 2008, published 2011)
Converted amounts (≈) assume the structure as drawn. Like-named read-outs stand apart in the source and are kept apart here.

Key:
[1] = tested on: Helicobacter pylori standard strain ATCC 43504; experiment: Anti Helicobacter pylori disc diffusion sensitivity assay, standard strain ATCC 43504; type: cell-based; details: 40 ng/disc (standard drug)
Method: (§1) For water containing sample, discs were first placed on the plate and then 5-10 μl of each sample, was added. The results are shown in below table: 10.

[2] = tested on: Helicobacter pylori standard strain ATCC 43504; experiment: MIC/MBC microbroth dilution assay, strain ATCC 43504; type: cell-based; details: ATCC43504, cell count ~10^6-10^7 CFU/ml
Method: (§2) • MICs of the two samples were determined employing one clinical (80A) and one standard (ATCC 43504) strain (Osato, 2000). • Two-fold serial dilutions of the samples were performed in 96-well microtitre plate. • Plates were kept for appropriate time in Incubator under optimum growth condition. • Following incubation, the plates were examined visually, and the lowest concentration showing complete inhibition of growth was recorded as the MIC of the respective sample.
(§3) • Aliquots of culture in which no growth had been detected were taken from the wells of the above microtitre plates and used to streak on fresh agar plates. • MBCs were determined by visual inspection of such plates after further incubation and the point where no growth (less than 10 colony) appeared was considered as the MBCs.

[3] = tested on: Helicobacter pylori clinical strain 80A; experiment: MIC/MBC microbroth dilution assay, strain 80A; type: cell-based; details: cell count ~10^6-10^7 CFU/ml
Method: as §2, §3

[4] = tested on: Helicobacter pylori clinical strain 80A; experiment: Anti Helicobacter pylori disc diffusion sensitivity assay, clinical strain 80A; type: cell-based; details: 10 ng/disc (standard drug)
Method: as §1

Helicobacter pylori = experiment: Anti Helicobacter pylori activity, overall observations; type: cell-based; details: strains 80A and ATCC 43504
[5] = target: porcine pancreatic elastase (Sus scrofa, UniProt P00772); experiment: Elastase inhibition assay; type: biochemical
Chain of porcine pancreatic elastase (P00772 27-266): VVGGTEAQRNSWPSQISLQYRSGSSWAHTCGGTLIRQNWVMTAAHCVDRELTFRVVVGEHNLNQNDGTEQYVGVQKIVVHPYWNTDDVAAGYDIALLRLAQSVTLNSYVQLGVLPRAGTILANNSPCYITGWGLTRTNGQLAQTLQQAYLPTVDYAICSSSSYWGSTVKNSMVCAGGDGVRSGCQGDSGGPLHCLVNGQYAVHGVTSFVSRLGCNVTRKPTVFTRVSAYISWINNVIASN
Method: In brief, 233 μl of each test solutions/reference standard (various concentrations) in 100 mM Tris-HCl pH8.0 and 7 μl of enzyme (porcine pancreatic elastase, 0.84 units/ml) solution was incubated at 37° C. for 15 mins. Following incubation, 20 μl of substrate (n-succinyl-ala-ala-ala-p-nitroanilide) solution was added and incubated at 37° C. for 30 mins. The absorbance was measured at 405 nm. A control reaction was carried out without the test sample. The percentage inhibition was calculated by the equation [absorbance (control)−absorbance (test)]/absorbance (control)×100]. The IC50 values were determined using log-probit analysis.

[6] = tested on: pylorus ligation induced ulcer; experiment: Pylorus ligation induced ulcer model; type: in vivo, albino Wistar rats; details: 10 mg/kg; mean ± SEM, n = 6
Excerpt: Details of the study are provided in the below table: 4. [table]

[7] = tested on: cold stress induced ulcer; experiment: Cold stress induced ulcer model; type: in vivo, albino Wistar rats
[8] = porcine pancreatic elastase, log-probit analysis, read-out: IC50 in elastase inhibition assay (converted)

CC[C@H]1OC(=O)[C@H](C)[C@@H](O[C@H]2C[C@@](C)(OC)[C@@H](O)[C@H](C)O2)[C@H](C)[C@@H](O[C@@H]2O[C@H](C)C[C@H](N(C)C)[C@H]2O)[C@](C)(OC)C[C@@H](C)C(=O)[C@H](C)[C@@H](O)[C@]1(C)O [Clarithromycin]
Inhibition Zone Diameter in strain ATCC 43504 [1]: 1.8-2.0 cm
MBC [2]: 0.05 µg/mL (≈ 0.0668 µM)
MIC [2]: 0.025 µg/mL (≈ 0.0334 µM)
MBC [3]: 0.025 µg/mL (≈ 0.0334 µM)
MIC [3]: 0.013 µg/mL (≈ 0.0174 µM)
Inhibition Zone Diameter in strain 80A [4]: 1.8-2.0 cm
anti Helicobacter pylori activity (disc diffusion observation) (Helicobacter pylori): showed appropriate zone of inhibition

CCCCCCCCCCCCCCCCCCCCCCOC(=O)/C=C/c1ccc(O)c(O)c1 [Docosyl caffeate (2), docosyl caffeate]
IC50 [5, 8]: 2860 nM

CCCCCCCCCCCCCCCCCCCCOC(=O)/C=C/c1ccc(O)c(O)c1 [Eicosanyl caffeate(1), eicosanyl caffeate]
IC50 [5, 8]: 2150 nM

COc1ccc2[nH]c([S+]([O-])Cc3ncc(C)c(OC)c3C)nc2c1 (centres unmarked) [Omeprazole]
Gastric content [6]: 2.42 ± 0.24 mL
Total acidity [6]: 15.33 ± 0.92 mEq/L/100 g
Ulcer index [6]: 3.33 ± 1.38
pH [6]: 6.89 ± 0.14
Ulcer index ([7]; 10 mg/kg, mean ± SEM, n = 6): 0.67 ± 0.49
pH ([7]; 10 mg/kg, mean ± SEM, n = 6): 6.50 ± 0.22
pH of stomach ([7]; comparison Table 12 remark, ulcer model not specified): the pH to more than 6

C[C@H]1[C@H](C)CC[C@]2(C(=O)O)CC[C@]3(C)C(=CC[C@@H]4[C@@]5(C)CC[C@H](O)C(C)(C)[C@@H]5CC[C@]43C)[C@H]12 [Ursolic acid]
IC50 [5]: 23600 nM
